Earlier results in PubChem BioAssay AID1259409 (Chemical Carcinogenesis Research Information System (CCRIS), 2018).

Tested on: rodent chemically induced tumor inhibition, incidence and multiplicity
Experiment: CCRIS tumor inhibitor studies
Conditions: Carcinogen: 2,2'-DIHYDROXY-DI-N-PROPYLNITROSAMINE, 53609-64-6, 13147-25-6, Carcinogen: 2,2'-DIHYDROXY-DI-N-PROPYLNITROSAMINE, 53609-64-6, 13147-25-6, Dose [Inhibitor]: 0, Route [Inhibitor]: ORAL, Species: RAT, Promoter: NONE USED; for tumour outcome (control, treated, inhibition, significance): N-ETHYL-N-HYDROXYETHYLNITROSAMINE, Dose [Carcinogen]: 1000 MG/KG BW DHPN TWICE

O=P(O)(O)OC1C(OP(=O)(O)O)C(OP(=O)(O)O)C(OP(=O)(O)O)C(OP(=O)(O)O)C1OP(=O)(O)O (stereo not given)
outcome (N-ETHYL-N-HYDROXYETHYL- NITROSAMINE, 3,2'-DIMETHYL-4-, N-ETHYL-N-HYDROXYETHYL- NITROSAMINE, 3,2'-DIMETHYL-4-, 2% IN DIET BEGINNING 1 WK POST LAST CARCINOGEN DOSE AND CONTINUING FOR 32 WK (STUDY DURATION: 36 WK), Strain/Sex: F344/MALE, Target Tissue: Type of Lesion: URINARY BLADDER: PAPILLOMA, Dose [Carcinogen]: 1000 MG/KG/ IP DHPN 2X, 1500 MG/KG/ GAV EHEN 2X AND 75 MG/KG SC DMAB 3X GIVEN OVER THE INITIAL 3 WK PERIOD AT 3-4 D INTE): 0/14 (0%), 6/12 (50%), p<0.01n
tumour outcome (control, treated, inhibition, significance) (3,2'-DIMETHYL-1,4-, 3,2'-DIMETHYL-1,4-, 1% IN DIET FOR 4 WK BEGINNING 1 D PRIOR TO FIRST CARCINOGEN DOSE (STUDY DURATION: 36 WK), Strain/Sex: F344/MALE, Target Tissue: Type of Lesion: KIDNEY: ADENOMA, 1500 MG/KG EHEN TWICE, 75 MG/KG BW DMAB 3 TIMES, SEQUENTIALLY OVER 3 WK): 6/10 (60%), 6/14 (43%), 28%, not significant
tumour outcome (control, treated, inhibition, significance) (3,2'-DIMETHYL-1,4-, 3,2'-DIMETHYL-1,4-, 1% IN DIET FOR 4 WK BEGINNING 1 D PRIOR TO FIRST CARCINOGEN DOSE (STUDY DURATION: 36 WK), Strain/Sex: F344/MALE, Target Tissue: Type of Lesion: LUNG: ADENOMA, 1500 MG/KG EHEN TWICE, 75 MG/KG BW DMAB 3 TIMES, SEQUENTIALLY OVER 3 WK): 5/10 (50%), 9/14 (64%), -28%, not significant
tumour outcome (control, treated, inhibition, significance) (3,2'-DIMETHYL-4-AMINO-, 3,2'-DIMETHYL-4-AMINO-, 2% IN DIET FOR 32 WK BEGINNING 1 WK POST CARCINOGEN TREATMENT (STUDY DURATION: 36 WK0, Strain/Sex: F344/MALE, Target Tissue: Type of Lesion: KIDNEY: NEPHROBLASTOMA, 1500 MG/KG BW EHEN TWICE, 75 MG/KG BW 3 TIMES ADMINISTERED OVER FIRST 3 WK): 2/14 (14%), 3/12 (25%), -79%, not significant
tumour outcome (control, treated, inhibition, significance) (3,2'-DIMETHYL-4-AMINO-, 3,2'-DIMETHYL-4-AMINO-, 2% IN DIET FOR 32 WK BEGINNING 1 WK POST CARCINOGEN TREATMENT (STUDY DURATION: 36 WK), Strain/Sex: F244/MALE, Target Tissue: Type of Lesion: THYROID GLAND: CARCINOMA, 1500 MG/KG BW EHEN TWICE, 75 MG/KG BW 3 TIMES ADMINISTERED OVER FIRST 3 WK): 3/14 (21%), 2/12 (17%), 19%, not significant
tumour outcome (control, treated, inhibition, significance) (3,2'-DIMETHYL-4-AMINO-, 3,2'-DIMETHYL-4-AMINO-, 2% IN DIET FOR 32 WK BEGINNING 1 WK POST CARCINOGEN TREATMENT (STUDY DURATION: 36 WK), Strain/Sex: F344/MALE, Target Tissue: Type of Lesion: KIDNEY: ADENOMA, 1500 MG/KG BW EHEN TWICE, 75 MG/KG BW 3 TIMES ADMINISTERED OVER FIRST 3 WK): 6/14 (43%), 7/12 (58%), -35%, not significant
tumour outcome (control, treated, inhibition, significance) (3,2'-DIMETHYL-4-AMINO-, 3,2'-DIMETHYL-4-AMINO-, 2% IN DIET FOR 32 WK BEGINNING 1 WK POST CARCINOGEN TREATMENT (STUDY DURATION: 36 WK), Strain/Sex: F344/MALE, Target Tissue: Type of Lesion: KIDNEY: TRANSITIONAL CELL CARCINOMA, 1500 MG/KG BW EHEN TWICE, 75 MG/KG BW 3 TIMES ADMINISTERED OVER FIRST 3 WK): 1/14 (7%), 2/12 (17%), -143%, not significant
tumour outcome (control, treated, inhibition, significance) (3,2'-DIMETHYL-4-AMINO-, 3,2'-DIMETHYL-4-AMINO-, 2% IN DIET FOR 32 WK BEGINNING 1 WK POST CARCINOGEN TREATMENT (STUDY DURATION: 36 WK), Strain/Sex: F344/MALE, Target Tissue: Type of Lesion: LARGE INTESTINE: CARCINOMA, 1500 MG/KG BW EHEN TWICE, 75 MG/KG BW 3 TIMES ADMINISTERED OVER FIRST 3 WK): 3/14 (21%), 4/12 (33%), -57%, not significant
tumour outcome (control, treated, inhibition, significance) (3,2'-DIMETHYL-4-AMINO-, 3,2'-DIMETHYL-4-AMINO-, 2% IN DIET FOR 32 WK BEGINNING 1 WK POST CARCINOGEN TREATMENT (STUDY DURATION: 36 WK), Strain/Sex: F344/MALE, Target Tissue: Type of Lesion: LIVER: HEPATOCELLULAR CARCINOMA, 15OO MG/KG BW EHEN TWICE, 75 MG/KG BW 3 TIMES ADMINISTERED OVER FIRST 3 WK): 6/14 (43%), 1/12 (8%), 81%, not significant
tumour outcome (control, treated, inhibition, significance) (3,2'-DIMETHYL-4-AMINO-, 3,2'-DIMETHYL-4-AMINO-, 2% IN DIET FOR 32 WK BEGINNING 1 WK POST CARCINOGEN TREATMENT (STUDY DURATION: 36 WK), Strain/Sex: F344/MALE, Target Tissue: Type of Lesion: LUNG: ADENOMA, 1500 MG/KG BW EHEN TWICE, 75 MG/KG BW 3 TIMES ADMINISTERED OVER FIRST 3 WK): 7/14 (50%), 9/12 (75%), -50%, not significant
